Reference: the kinase profiling compilation of Christmann-Franck et al. (2016)

How the values were obtained:
Assay in all cases: KINOMEscan competition binding
Details in all cases: compound 10.0 µM
PRKCQ (human) = PRKCQ (human) (UniProt Q04759)
LTK (human) = LTK (human) (UniProt P29376)
HIPK1 (human) = HIPK1 (human) (UniProt Q86Z02)
PDGFRB (human) = PDGFRB (human) (UniProt P09619)
SYK (human) = SYK (human) (UniProt P43405)
ITK (human) = ITK (human) (UniProt Q08881)
WEE2 (human) = WEE2 (human) (UniProt P0C1S8)
MAPK11 (human) = MAPK11 (human) (UniProt Q15759)
CHUK (human) = CHUK (human) (UniProt O15111)
PAK3 (human) = PAK3 (human) (UniProt O75914)
EPHA4 (human) = EPHA4 (human) (UniProt P54764)
STK38L (human) = STK38L (human) (UniProt Q9Y2H1)
CaMK1 (human) = CaMK1 (human) (UniProt Q14012)
MYLK4 (human) = MYLK4 (human) (UniProt Q86YV6)
CAMK2A (human) = CAMK2A (human) (UniProt Q9UQM7)
[1] = molecular target: TYK2 JH2 pseudokinase (human) (UniProt P29597)
ERBB2 (human) = ERBB2 (human) (UniProt P04626)
AKT2 (human) = AKT2 (human) (UniProt P31751)
PAK4 (human) = PAK4 (human) (UniProt O96013)
AURKB (human) = AURKB (human) (UniProt Q96GD4)
MELK (human) = MELK (human) (UniProt Q14680)
ACVR2B (human) = ACVR2B (human) (UniProt Q13705)
CSNK1D (human) = CSNK1D (human) (UniProt P48730)
MAP4K1 (human) = MAP4K1 (human) (UniProt Q92918)
MAP3K12 (human) = MAP3K12 (human) (UniProt Q12852)
TEC (human) = TEC (human) (UniProt P42680)
DYRK1B (human) = DYRK1B (human) (UniProt Q9Y463)
DAPK1 (human) = DAPK1 (human) (UniProt P53355)
NEK9 (human) = NEK9 (human) (UniProt Q8TD19)
RPS6KA1 KD1 (human) = RPS6KA1 KD1 (human) (UniProt Q15418)
MUSK (human) = MUSK (human) (UniProt O15146)
CLK1 (human) = CLK1 (human) (UniProt P49759)
RPS6KA5 KD2 (human) = RPS6KA5 KD2 (human) (UniProt O75582)
MAPK10 (human) = MAPK10 (human) (UniProt P53779)
BRSK1 (human) = BRSK1 (human) (UniProt Q8TDC3)
MLTK (human) = MLTK (human) (UniProt Q9NYL2)
MAPK1 (human) = MAPK1 (human) (UniProt P28482)
MARK1 (human) = MARK1 (human) (UniProt Q9P0L2)
EIF2AK2 (human) = EIF2AK2 (human) (UniProt P19525)
FYN (human) = FYN (human) (UniProt P06241)

Sequence of AKT2 (human) (P31751 whole entry, looked up): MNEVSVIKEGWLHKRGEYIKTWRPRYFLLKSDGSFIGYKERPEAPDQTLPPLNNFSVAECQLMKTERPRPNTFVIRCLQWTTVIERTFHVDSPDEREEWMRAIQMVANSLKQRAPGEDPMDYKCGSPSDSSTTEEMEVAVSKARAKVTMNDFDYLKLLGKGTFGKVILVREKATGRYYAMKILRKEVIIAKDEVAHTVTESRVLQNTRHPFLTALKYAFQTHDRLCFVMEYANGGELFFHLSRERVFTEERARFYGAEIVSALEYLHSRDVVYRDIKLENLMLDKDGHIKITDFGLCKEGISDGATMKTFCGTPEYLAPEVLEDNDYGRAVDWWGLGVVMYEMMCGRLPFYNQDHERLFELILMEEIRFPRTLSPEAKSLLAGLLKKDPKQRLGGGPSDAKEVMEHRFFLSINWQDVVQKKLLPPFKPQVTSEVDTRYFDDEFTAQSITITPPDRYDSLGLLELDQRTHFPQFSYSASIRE
Sequence of MAP4K1 (human) (Q92918 whole entry, looked up): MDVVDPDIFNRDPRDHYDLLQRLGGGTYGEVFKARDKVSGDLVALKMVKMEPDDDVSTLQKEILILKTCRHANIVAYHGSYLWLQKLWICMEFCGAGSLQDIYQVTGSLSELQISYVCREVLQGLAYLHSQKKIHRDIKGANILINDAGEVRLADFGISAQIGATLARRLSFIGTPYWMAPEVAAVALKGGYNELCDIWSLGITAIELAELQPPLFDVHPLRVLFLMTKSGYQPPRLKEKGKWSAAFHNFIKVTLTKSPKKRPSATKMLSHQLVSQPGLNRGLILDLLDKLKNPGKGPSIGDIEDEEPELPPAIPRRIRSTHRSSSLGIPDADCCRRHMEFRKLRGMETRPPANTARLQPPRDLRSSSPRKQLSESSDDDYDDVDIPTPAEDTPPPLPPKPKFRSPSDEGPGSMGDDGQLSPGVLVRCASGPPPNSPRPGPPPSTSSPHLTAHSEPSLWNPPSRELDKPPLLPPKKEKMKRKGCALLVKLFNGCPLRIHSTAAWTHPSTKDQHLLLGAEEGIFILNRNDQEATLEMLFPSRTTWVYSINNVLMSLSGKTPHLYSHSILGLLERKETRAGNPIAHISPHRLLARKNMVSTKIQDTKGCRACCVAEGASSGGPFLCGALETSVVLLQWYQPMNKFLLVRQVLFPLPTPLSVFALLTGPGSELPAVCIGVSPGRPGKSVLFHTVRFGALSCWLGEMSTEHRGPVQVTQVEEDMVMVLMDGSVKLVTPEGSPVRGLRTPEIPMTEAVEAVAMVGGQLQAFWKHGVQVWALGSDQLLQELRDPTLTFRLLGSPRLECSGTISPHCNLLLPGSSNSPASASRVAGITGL
Sequence of ACVR2B (human) (Q13705 whole entry, looked up): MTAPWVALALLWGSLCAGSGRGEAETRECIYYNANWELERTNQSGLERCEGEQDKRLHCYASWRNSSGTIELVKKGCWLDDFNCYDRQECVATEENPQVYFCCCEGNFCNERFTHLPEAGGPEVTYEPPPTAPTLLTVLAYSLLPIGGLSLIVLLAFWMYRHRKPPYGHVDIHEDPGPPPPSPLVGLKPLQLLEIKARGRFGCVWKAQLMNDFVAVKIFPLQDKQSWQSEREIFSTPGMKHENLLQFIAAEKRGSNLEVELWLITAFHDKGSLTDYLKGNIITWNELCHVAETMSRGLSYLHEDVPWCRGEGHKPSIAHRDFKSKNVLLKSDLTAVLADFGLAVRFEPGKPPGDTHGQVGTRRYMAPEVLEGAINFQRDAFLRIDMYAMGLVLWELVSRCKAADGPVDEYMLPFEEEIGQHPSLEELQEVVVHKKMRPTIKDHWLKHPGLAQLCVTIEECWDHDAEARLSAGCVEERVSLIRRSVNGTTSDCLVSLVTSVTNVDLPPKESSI
Sequence of MUSK (human) (O15146 whole entry, looked up): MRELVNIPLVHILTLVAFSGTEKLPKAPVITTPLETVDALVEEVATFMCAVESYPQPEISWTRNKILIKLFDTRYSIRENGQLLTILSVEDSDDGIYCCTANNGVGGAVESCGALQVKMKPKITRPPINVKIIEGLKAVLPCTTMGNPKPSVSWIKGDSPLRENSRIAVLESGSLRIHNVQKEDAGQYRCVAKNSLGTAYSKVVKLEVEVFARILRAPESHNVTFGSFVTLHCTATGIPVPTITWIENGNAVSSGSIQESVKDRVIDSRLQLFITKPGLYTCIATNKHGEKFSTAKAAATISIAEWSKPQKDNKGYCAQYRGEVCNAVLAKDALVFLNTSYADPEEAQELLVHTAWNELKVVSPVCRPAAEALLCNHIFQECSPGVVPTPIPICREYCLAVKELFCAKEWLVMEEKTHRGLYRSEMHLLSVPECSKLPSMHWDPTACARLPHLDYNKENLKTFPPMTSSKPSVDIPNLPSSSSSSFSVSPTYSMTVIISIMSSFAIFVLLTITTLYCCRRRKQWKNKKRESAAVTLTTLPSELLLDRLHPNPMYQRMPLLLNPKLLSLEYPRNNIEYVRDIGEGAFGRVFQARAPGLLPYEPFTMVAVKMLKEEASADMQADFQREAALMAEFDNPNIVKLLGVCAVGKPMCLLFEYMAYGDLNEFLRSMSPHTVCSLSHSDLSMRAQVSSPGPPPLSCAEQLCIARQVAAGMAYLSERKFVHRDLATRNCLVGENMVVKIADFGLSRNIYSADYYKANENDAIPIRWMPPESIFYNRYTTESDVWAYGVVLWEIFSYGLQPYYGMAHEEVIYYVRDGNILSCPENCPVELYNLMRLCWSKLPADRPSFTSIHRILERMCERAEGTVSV
Sequence of MELK (human) (Q14680 whole entry, looked up): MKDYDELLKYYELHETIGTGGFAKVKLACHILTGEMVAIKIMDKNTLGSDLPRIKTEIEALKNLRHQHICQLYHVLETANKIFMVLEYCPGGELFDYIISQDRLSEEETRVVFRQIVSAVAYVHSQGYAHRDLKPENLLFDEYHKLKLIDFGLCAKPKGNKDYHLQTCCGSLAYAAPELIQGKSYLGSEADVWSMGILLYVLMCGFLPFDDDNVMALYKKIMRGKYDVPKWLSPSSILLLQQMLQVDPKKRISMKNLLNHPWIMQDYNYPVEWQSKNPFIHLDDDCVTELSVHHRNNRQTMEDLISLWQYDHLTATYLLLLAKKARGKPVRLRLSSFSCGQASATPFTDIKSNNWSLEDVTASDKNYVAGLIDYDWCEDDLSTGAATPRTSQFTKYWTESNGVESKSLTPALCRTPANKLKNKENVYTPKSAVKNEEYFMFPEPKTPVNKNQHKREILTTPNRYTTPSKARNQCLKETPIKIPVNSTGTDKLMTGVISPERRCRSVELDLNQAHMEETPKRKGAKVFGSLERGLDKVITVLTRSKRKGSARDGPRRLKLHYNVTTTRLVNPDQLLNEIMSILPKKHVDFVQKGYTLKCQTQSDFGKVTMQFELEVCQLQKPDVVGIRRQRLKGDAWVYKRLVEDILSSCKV
Sequence of PAK4 (human) (O96013 whole entry, looked up): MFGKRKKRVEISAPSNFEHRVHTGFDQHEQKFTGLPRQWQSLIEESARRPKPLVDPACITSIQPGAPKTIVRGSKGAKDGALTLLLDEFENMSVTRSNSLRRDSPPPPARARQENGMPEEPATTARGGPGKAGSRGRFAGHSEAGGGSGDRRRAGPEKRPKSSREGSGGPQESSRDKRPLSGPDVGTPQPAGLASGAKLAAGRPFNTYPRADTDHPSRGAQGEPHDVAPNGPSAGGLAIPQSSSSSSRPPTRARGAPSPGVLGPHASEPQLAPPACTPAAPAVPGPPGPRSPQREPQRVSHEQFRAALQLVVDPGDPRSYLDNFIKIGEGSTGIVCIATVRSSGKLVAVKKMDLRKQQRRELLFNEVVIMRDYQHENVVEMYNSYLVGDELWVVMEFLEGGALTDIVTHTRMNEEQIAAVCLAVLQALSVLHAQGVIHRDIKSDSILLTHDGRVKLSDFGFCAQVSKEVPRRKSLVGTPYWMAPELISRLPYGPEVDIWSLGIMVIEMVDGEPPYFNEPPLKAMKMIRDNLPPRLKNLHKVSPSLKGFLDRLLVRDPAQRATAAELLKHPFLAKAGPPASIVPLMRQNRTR
Sequence of CaMK1 (human) (Q14012 whole entry, looked up): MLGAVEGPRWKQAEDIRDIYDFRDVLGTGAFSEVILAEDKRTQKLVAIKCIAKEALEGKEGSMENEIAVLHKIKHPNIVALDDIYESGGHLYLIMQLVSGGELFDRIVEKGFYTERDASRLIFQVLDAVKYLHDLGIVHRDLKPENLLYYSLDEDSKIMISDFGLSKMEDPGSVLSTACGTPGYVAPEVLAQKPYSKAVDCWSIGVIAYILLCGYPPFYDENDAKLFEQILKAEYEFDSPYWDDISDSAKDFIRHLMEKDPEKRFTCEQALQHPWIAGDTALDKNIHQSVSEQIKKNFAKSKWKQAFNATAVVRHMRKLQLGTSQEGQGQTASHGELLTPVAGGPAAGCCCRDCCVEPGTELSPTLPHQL
Sequence of AURKB (human) (Q96GD4 whole entry, looked up): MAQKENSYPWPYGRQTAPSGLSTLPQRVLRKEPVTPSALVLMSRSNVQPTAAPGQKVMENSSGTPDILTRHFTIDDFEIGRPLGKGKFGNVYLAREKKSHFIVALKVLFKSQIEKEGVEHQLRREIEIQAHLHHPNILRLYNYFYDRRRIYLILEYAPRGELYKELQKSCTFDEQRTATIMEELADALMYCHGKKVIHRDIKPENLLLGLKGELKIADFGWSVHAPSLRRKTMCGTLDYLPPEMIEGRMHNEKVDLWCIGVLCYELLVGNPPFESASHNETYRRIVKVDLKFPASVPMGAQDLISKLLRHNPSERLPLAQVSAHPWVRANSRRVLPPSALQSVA
Sequence of MAPK11 (human) (Q15759 whole entry, looked up): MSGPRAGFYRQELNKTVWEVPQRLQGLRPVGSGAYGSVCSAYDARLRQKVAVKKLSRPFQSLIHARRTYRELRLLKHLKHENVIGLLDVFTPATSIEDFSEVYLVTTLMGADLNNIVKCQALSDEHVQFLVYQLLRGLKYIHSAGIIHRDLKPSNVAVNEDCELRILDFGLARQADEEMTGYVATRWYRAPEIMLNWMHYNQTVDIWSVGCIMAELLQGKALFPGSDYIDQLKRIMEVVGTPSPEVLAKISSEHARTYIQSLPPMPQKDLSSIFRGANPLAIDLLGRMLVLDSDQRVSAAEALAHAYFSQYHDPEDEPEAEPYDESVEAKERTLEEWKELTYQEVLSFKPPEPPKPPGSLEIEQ

## C=CC(=O)Nc1cccc(Nc2nc(N[C@H]3CC[C@H](N(C)C)CC3)nc3c2ncn3C(C)C)c1
PRKCQ (human)
  kinase still bound, per cent of control: 3.6%
LTK (human)
  kinase still bound, per cent of control: 88%
HIPK1 (human)
  kinase still bound, per cent of control: 25%
PDGFRB (human)
  kinase still bound, per cent of control: 8.4%
SYK (human)
  kinase still bound, per cent of control: 72%
ITK (human)
  kinase still bound, per cent of control: 65%
WEE2 (human)
  kinase still bound, per cent of control: 100%
MAPK11 (human)
  kinase still bound, per cent of control: 89%
CHUK (human)
  kinase still bound, per cent of control: 82%
PAK3 (human)
  kinase still bound, per cent of control: 100%
EPHA4 (human)
  kinase still bound, per cent of control: 64%
STK38L (human)
  kinase still bound, per cent of control: 41%
CaMK1 (human)
  kinase still bound, per cent of control: 93%
MYLK4 (human)
  kinase still bound, per cent of control: 88%
CAMK2A (human)
  kinase still bound, per cent of control: 34%
[1]
  kinase still bound, per cent of control: 100%
ERBB2 (human)
  kinase still bound, per cent of control: 100%
AKT2 (human)
  kinase still bound, per cent of control: 84%
PAK4 (human)
  kinase still bound, per cent of control: 17%
AURKB (human)
  kinase still bound, per cent of control: 73%
MELK (human)
  kinase still bound, per cent of control: 25%
ACVR2B (human)
  kinase still bound, per cent of control: 91%
CSNK1D (human)
  kinase still bound, per cent of control: 0.75%
MAP4K1 (human)
  kinase still bound, per cent of control: 74%
MAP3K12 (human)
  kinase still bound, per cent of control: 71%
TEC (human)
  kinase still bound, per cent of control: 100%
DYRK1B (human)
  kinase still bound, per cent of control: 49%
DAPK1 (human)
  kinase still bound, per cent of control: 29%
NEK9 (human)
  kinase still bound, per cent of control: 100%
RPS6KA1 KD1 (human)
  kinase still bound, per cent of control: 9.4%
MUSK (human)
  kinase still bound, per cent of control: 84%
CLK1 (human)
  kinase still bound, per cent of control: 1%
RPS6KA5 KD2 (human)
  kinase still bound, per cent of control: 95%
MAPK10 (human)
  kinase still bound, per cent of control: 100%
BRSK1 (human)
  kinase still bound, per cent of control: 88%
MLTK (human)
  kinase still bound, per cent of control: 100%
MAPK1 (human)
  kinase still bound, per cent of control: 93%
MARK1 (human)
  kinase still bound, per cent of control: 94%
EIF2AK2 (human)
  kinase still bound, per cent of control: 78%
FYN (human)
  kinase still bound, per cent of control: 23%

## COc1cc(C(=O)NC2CCN(C)CC2)ccc1Nc1ncc2c(n1)N(C1CCCC1)C(C)CC(=O)N2C (stereo not given)
PRKCQ (human)
  kinase still bound, per cent of control: 100%
LTK (human)
  kinase still bound, per cent of control: 100%
HIPK1 (human)
  kinase still bound, per cent of control: 100%
PDGFRB (human)
  kinase still bound, per cent of control: 100%
SYK (human)
  kinase still bound, per cent of control: 100%
ITK (human)
  kinase still bound, per cent of control: 100%
WEE2 (human)
  kinase still bound, per cent of control: 100%
MAPK11 (human)
  kinase still bound, per cent of control: 100%
CHUK (human)
  kinase still bound, per cent of control: 100%
PAK3 (human)
  kinase still bound, per cent of control: 100%
EPHA4 (human)
  kinase still bound, per cent of control: 100%
STK38L (human)
  kinase still bound, per cent of control: 100%
CaMK1 (human)
  kinase still bound, per cent of control: 100%
MYLK4 (human)
  kinase still bound, per cent of control: 100%
CAMK2A (human)
  kinase still bound, per cent of control: 21%
[1]
  kinase still bound, per cent of control: 100%
ERBB2 (human)
  kinase still bound, per cent of control: 100%
AKT2 (human)
  kinase still bound, per cent of control: 100%
PAK4 (human)
  kinase still bound, per cent of control: 100%
AURKB (human)
  kinase still bound, per cent of control: 100%
MELK (human)
  kinase still bound, per cent of control: 100%
ACVR2B (human)
  kinase still bound, per cent of control: 100%
CSNK1D (human)
  kinase still bound, per cent of control: 100%
MAP4K1 (human)
  kinase still bound, per cent of control: 100%
MAP3K12 (human)
  kinase still bound, per cent of control: 100%
TEC (human)
  kinase still bound, per cent of control: 100%
DYRK1B (human)
  kinase still bound, per cent of control: 100%
DAPK1 (human)
  kinase still bound, per cent of control: 26%
NEK9 (human)
  kinase still bound, per cent of control: 100%
RPS6KA1 KD1 (human)
  kinase still bound, per cent of control: 100%
MUSK (human)
  kinase still bound, per cent of control: 100%
CLK1 (human)
  kinase still bound, per cent of control: 18%
RPS6KA5 KD2 (human)
  kinase still bound, per cent of control: 100%
MAPK10 (human)
  kinase still bound, per cent of control: 100%
BRSK1 (human)
  kinase still bound, per cent of control: 100%
MLTK (human)
  kinase still bound, per cent of control: 100%
MAPK1 (human)
  kinase still bound, per cent of control: 100%
MARK1 (human)
  kinase still bound, per cent of control: 100%
EIF2AK2 (human)
  kinase still bound, per cent of control: 100%
FYN (human)
  kinase still bound, per cent of control: 100%

## CN(C)C/C=C/C(=O)Nc1cccc(Nc2ncc3c(n2)N(C)c2ccccc2C(=O)N3C)c1
PRKCQ (human)
  kinase still bound, per cent of control: 83%
LTK (human)
  kinase still bound, per cent of control: 100%
HIPK1 (human)
  kinase still bound, per cent of control: 76%
PDGFRB (human)
  kinase still bound, per cent of control: 38%
SYK (human)
  kinase still bound, per cent of control: 50%
ITK (human)
  kinase still bound, per cent of control: 58%
WEE2 (human)
  kinase still bound, per cent of control: 97%
MAPK11 (human)
  kinase still bound, per cent of control: 89%
CHUK (human)
  kinase still bound, per cent of control: 100%
PAK3 (human)
  kinase still bound, per cent of control: 14%
EPHA4 (human)
  kinase still bound, per cent of control: 79%
STK38L (human)
  kinase still bound, per cent of control: 54%
CaMK1 (human)
  kinase still bound, per cent of control: 49%
MYLK4 (human)
  kinase still bound, per cent of control: 86%
CAMK2A (human)
  kinase still bound, per cent of control: 32%
[1]
  kinase still bound, per cent of control: 18%
ERBB2 (human)
  kinase still bound, per cent of control: 65%
AKT2 (human)
  kinase still bound, per cent of control: 99%
PAK4 (human)
  kinase still bound, per cent of control: 61%
AURKB (human)
  kinase still bound, per cent of control: 0.1%
MELK (human)
  kinase still bound, per cent of control: 43%
ACVR2B (human)
  kinase still bound, per cent of control: 9.4%
CSNK1D (human)
  kinase still bound, per cent of control: 52%
MAP4K1 (human)
  kinase still bound, per cent of control: 38%
MAP3K12 (human)
  kinase still bound, per cent of control: 38%
TEC (human)
  kinase still bound, per cent of control: 97%
DYRK1B (human)
  kinase still bound, per cent of control: 100%
DAPK1 (human)
  kinase still bound, per cent of control: 52%
NEK9 (human)
  kinase still bound, per cent of control: 93%
RPS6KA1 KD1 (human)
  kinase still bound, per cent of control: 67%
MUSK (human)
  kinase still bound, per cent of control: 100%
CLK1 (human)
  kinase still bound, per cent of control: 50%
RPS6KA5 KD2 (human)
  kinase still bound, per cent of control: 80%
MAPK10 (human)
  kinase still bound, per cent of control: 80%
BRSK1 (human)
  kinase still bound, per cent of control: 14%
MLTK (human)
  kinase still bound, per cent of control: 79%
MAPK1 (human)
  kinase still bound, per cent of control: 100%
MARK1 (human)
  kinase still bound, per cent of control: 4.3%
EIF2AK2 (human)
  kinase still bound, per cent of control: 75%
FYN (human)
  kinase still bound, per cent of control: 6.7%
